In article PMC11077371, “Ciliogenesis-associated Kinase 1 Promotes Breast Cancer Cell Proliferation and Chemoresistance via Phosphorylating ERK1” (International Journal of Biological Sciences, 2024):
pKd: −log10 of the molar value.

Biological target: T1, CILK1 (Homo sapiens, UniProt Q9UPZ9)
T1 construct: purchased protein (Abcam ab101774)
T1 sequence (Q9UPZ9 1-632): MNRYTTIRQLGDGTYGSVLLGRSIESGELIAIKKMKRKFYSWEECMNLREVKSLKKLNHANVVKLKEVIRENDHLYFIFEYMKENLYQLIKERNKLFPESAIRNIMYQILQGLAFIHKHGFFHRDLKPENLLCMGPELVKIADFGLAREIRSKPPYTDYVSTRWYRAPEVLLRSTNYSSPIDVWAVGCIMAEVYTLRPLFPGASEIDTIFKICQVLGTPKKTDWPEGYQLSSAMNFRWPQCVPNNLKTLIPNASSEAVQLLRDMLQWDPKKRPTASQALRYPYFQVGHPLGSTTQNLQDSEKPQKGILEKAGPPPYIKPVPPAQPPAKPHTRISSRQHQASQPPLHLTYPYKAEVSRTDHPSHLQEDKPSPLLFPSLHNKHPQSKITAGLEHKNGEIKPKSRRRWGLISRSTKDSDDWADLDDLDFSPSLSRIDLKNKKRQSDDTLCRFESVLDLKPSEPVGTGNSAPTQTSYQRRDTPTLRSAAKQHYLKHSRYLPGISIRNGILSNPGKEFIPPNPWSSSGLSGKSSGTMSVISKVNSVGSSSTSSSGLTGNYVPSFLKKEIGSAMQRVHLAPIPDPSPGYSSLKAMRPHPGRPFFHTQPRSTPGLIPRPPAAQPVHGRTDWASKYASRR
Experiment: surface plasmon resonance, […] Langmuir fit
Assay type: binding
Conditions: 3D Dextran chip; 1.5625-25 μM analyte

- pKd: 6.97
SMILES: CCc1ccc2nc(Nc3nc(C)c(Cc4ccc(C)cc4)c(=O)[nH]3)nc(C)c2c1 [CILK1-C30]
